Results on 20 molecules are retold here after ChEMBL document CHEMBL1151911, “A microwave-assisted facile regioselective Fischer indole synthesis and antitubercular evaluation of novel 2-aryl-3,4-dihydro-2H-thieno[3,2-b]indoles” (2009).

SMILES strings stand for the structures. In brackets after ≈: the same amount, converted by molar mass.

The test deals with Mycobacterium tuberculosis. The experiment in a line: Antimycobacterial activity against multi drug-resistant Mycobacterium tuberculosis. The format is functional.
On to `Clc1ccc(C2Cc3[nH]c4ccccc4c3S2)c(Cl)c1` (stereo not given), for which the MIC (usually the least concentration at which growth counts as inhibited) stood at 0.78 µg/mL (≈ 2.44 µM).

On to `CC(C)c1ccc(C2Cc3[nH]c4ccccc4c3S2)cc1` (stereo not given), for which the MIC came to 0.4 µg/mL (≈ 1.36 µM).

`Fc1ccc2[nH]c3c(c2c1)SC(c1ccccc1Cl)C3` (stereo not given): inhibition of growth (MIC) required 1.56 µg/mL (≈ 5.14 µM).

With `CC[C@@H](CO)NCCN[C@@H](CC)CO` [ETHAMBUTOL], the MIC was 12.5 µg/mL (≈ 61.2 µM).

Take `NNC(=O)c1ccncc1` [ISONIAZID]: the MIC was found to be 1.56 µg/mL (≈ 11.4 µM).

As for `Cc1ccc(C2Cc3[nH]c4ccc(Cl)cc4c3S2)cc1` (stereo not given), the MIC was 6.25 µg/mL (≈ 20.8 µM).

Molecule `Clc1ccc2[nH]c3c(c2c1)SC(c1ccccc1Cl)C3` (stereo not given) registered an MIC of 1.56 µg/mL (≈ 4.87 µM).

With `NC(=O)c1cnccn1` [PYRAZINAMIDE], the MIC was 50 µg/mL (≈ 406 µM).

`Cc1ccc(C2Cc3[nH]c4ccccc4c3S2)cc1` (stereo not given): the MIC stood at 12.5 µg/mL (≈ 47.1 µM).

`CC(C)c1ccc(C2Cc3[nH]c4ccc(Cl)cc4c3S2)cc1` (stereo not given): the lowest concentration to inhibit growth (MIC) was 0.78 µg/mL (≈ 2.38 µM).

Consider `Fc1ccc2[nH]c3c(c2c1)SC(c1ccc(Cl)cc1)C3` (stereo not given), for which it took 1.56 µg/mL (≈ 5.14 µM) to inhibit growth (MIC).

As for `Fc1ccc2[nH]c3c(c2c1)SC(c1ccccc1)C3` (stereo not given), the MIC is 12.5 µg/mL (≈ 46.4 µM).

The molecule `O=[N+]([O-])c1cccc(C2Cc3[nH]c4ccccc4c3S2)c1` (stereo not given) returned an MIC of 0.78 µg/mL (≈ 2.63 µM).

`CO[C@H]1/C=C/O[C@@]2(C)Oc3c(C)c(O)c4c(O)c(c(/C=N/N5CCN(C)CC5)c(O)c4c3C2=O)NC(=O)/C(C)=C\C=C\[C@H](C)[C@H](O)[C@@H](C)[C@@H](O)[C@@H](C)[C@H](OC(C)=O)[C@@H]1C` [RIFAMPIN] registered an MIC of 3.13 µg/mL (≈ 3.8 µM).

Molecule `Brc1ccccc1C1Cc2[nH]c3ccccc3c2S1` (stereo not given) registered an MIC of 3.13 µg/mL (≈ 9.48 µM).

Consider `Fc1ccc(C2Cc3[nH]c4ccc(Cl)cc4c3S2)cc1` (stereo not given), for which the MIC is 0.78 µg/mL (≈ 2.57 µM).

`Fc1ccc2[nH]c3c(c2c1)SC(c1ccc(Cl)cc1Cl)C3` (stereo not given) yielded an MIC of 0.4 µg/mL (≈ 1.18 µM).

In turn, `CC(C)c1ccc(C2Cc3[nH]c4ccc(F)cc4c3S2)cc1` (stereo not given) showed an MIC of 0.4 µg/mL (≈ 1.28 µM).

The molecule `Clc1ccc(C2Cc3[nH]c4ccc(Cl)cc4c3S2)c(Cl)c1` (stereo not given) had an MIC of 0.4 µg/mL (≈ 1.13 µM).

As for `Cc1ccc(C2Cc3[nH]c4ccc(F)cc4c3S2)cc1` (stereo not given), inhibition of growth (MIC) required 1.56 µg/mL (≈ 5.51 µM).
